Data reported in patent publication US20030181436A1, “Treatment for AIDS, HIV, and other related diseases and compounds for use therewith” (priority 2001, published 2003).

Experiments:
Format in all cases: cell-based
[1] = tested on: TNFα induced U1 cells (HIV IIIB provirus); test: U1 latent infection assay, supernatant reverse transcriptase activity; conditions: for % VC / RT ACTIVITY (cpm) MEAN: exp 2; for RT VALUES (cpm) MEAN / X VC: exp 1
Procedure: U1 and ACH-2 cells were obtained from the AIDS Research and Reference Reagent Program and maintained under standard culture conditions in RPMI 1640 supplemented with 10% fetal bovine serum (heat inactivated), supplemented with 2 mM […], 100U/ml penicillin and 100 μg/ml, streptomycin. U1 cells were derived from the histocytic leukemia cell line U937, and contain a single integrated copy (HIV IIIB) […] a cytokine and/or phorbol inducible provirus. ACH-2 cells are derived from the A3.01 T lymphoblastic cell line, and contain 2 copies of the HIV IIIB provirus, however only one is cytokine and/or phorbol inducible. Cultures were maintained in such a way as to ensure exponential growth of the populations. At the time of the assay, cells were collected by centrifugation and counted by hemacytometer. If cell viability by Trypan Blue dye exclusion was less than 70% the assay was terminated. The cells were adjusted to 5×10^4 cells/mL and 100 μL, placed in 96 well plates with 100 μL media containing a final concentration of […] TNFα and the test compound. Cultures were incubated for 3 days and supernatants harvested. Compound toxicity was determined by MTS dye reduction. Virus expression was measured by supernatant reverse transcriptasc activity.
(§1) Reverse transcriptase activity was measured in cell-free supernatants. Tritiated thymidine triphosphate (NEN) (TTP) was resuspended in distilled H2O at 5 Ci/mL. Poly rA and oligo dT were prepared as a stock solution which was kept at −20° C. The RT reaction buffer was prepared fresh on a daily basis and consists of 125 μL 1.0 M EGTA, 125 μL dH2O, 110 μL 10% SDS, 50 μL 1.0 M Tris (pH 7.4), 50 μL, 1.0 M DTT, and 40 μL 1.0 M MgCl2. These three solutions were mixed together in a ratio of 2 parts TTP, 1 part poly rA:oligo dT, and 1 part reaction buffer. Ten microliters of this reaction mixture was placed in a round bottom microtiter plate and 15 μL of virus containing supernatant was added and mixed. The plate was incubated at 37° C. in a water bath with a solid support to prevent submersion of the plate and incubated for 60 minutes. Following reaction, the reaction volume was spotted onto pieces of DE81 paper, washed 5 times for 5 minutes each in a 5% sodium phosphate buffer, 2 times for 1 minute each in distilled water, 2 times for 1 minute each in 70% ethanol, and then dried. Opti-Fluor O was added to each sample and incorporated radioactivity was quantitated utilizing a Wallac 1450 Microbetaplus liquid scintillation counter.

HeLa CD4 LTR β-gal cells = test: Cytotoxicity for HeLa CD4 LTR β-gal cells; conditions: for cytotoxic effects on the HeLa CD4 LTR β-gal cells: initial testing
Procedure: At assay termination the assay plates were stained with the soluble tetrazolium-based dye MTS (CellTiter® Reagent, Promega) to determined cell viability and quantify compound toxicity. […] At termination of the assay 20 μL of MTS reagent was added per well. The wells were incubated for 4 h at 37° C., 5% CO2. Adhesive plate scalers were used in place of the lids, the sealed plate was inverted several times to mix the soluble formazan product and the plate was read spectrophotometrically at 490 nm with a 650 nm reference wavelength on a Molecular Devices Vmax plate reader.
This cell line represents one of 3 standard models for performing time of addition assays.

[2] = tested on: HIV RoJo (a clinical isolate); test: Chronically infected PBMCs, supernatant reverse transcriptase activity
Procedure: as §1
In these studies PBMCs are infected with HIV RoJo (a clinical isolate) and a dynamic population of infected PBMCs established over a period of 2 to 3 weeks. This population of infected PBMCs was established and maintained by the addition of fresh PBMCs in a 1:1 ratio every 7 days, thus overcoming the lost of PBMCs to normal cell death processes. Thus a population of cells was established that consisted of uninfected cells, short lived infected cells and long lived infected cells. In experiments where AZT was added to prevent re-infection of the population, we typically saw a 50% reduction in infection following a 7 day treatment. This means that 50% of the virus production from the infected […] population was due re-infection. […] Thus there was a population of infected PBMCs present ([…] of the total) which survived for extended periods of time and thus met the definition of being chronically infected.

Potassium Iodiscorbate [Compound K]
% VC ([1]; 0.00063 μM): 112.6%
RT ACTIVITY (cpm) MEAN ([1]; 0.00063 μM): 3019 cpm
% VC ([1]; 0.002 μM): 118.4%
RT ACTIVITY (cpm) MEAN ([1]; 0.002 μM): 3174 cpm
% VC ([1]; 0.00625 μM): 111.5%
RT ACTIVITY (cpm) MEAN ([1]; 0.00625 μM): 2989 cpm
% VC ([1]; 0.02 μM): 98.4%
RT ACTIVITY (cpm) MEAN ([1]; 0.02 μM): 2640 cpm
% VC ([1]; 0.0625 μM): 107.1%
RT ACTIVITY (cpm) MEAN ([1]; 0.0625 μM): 2872 cpm
% VC ([1]; 0.2 μM): 110.0%
RT ACTIVITY (cpm) MEAN ([1]; 0.2 μM): 2949 cpm
% VC ([1]; 0.625 μM): 68.1%
RT ACTIVITY (cpm) MEAN ([1]; 0.625 μM): 1826 cpm
% VC ([1]; 2 μM): 81.7%
RT ACTIVITY (cpm) MEAN ([1]; 2 μM): 2191 cpm
% VC ([1]; 6.25 μM): 73.2%
RT ACTIVITY (cpm) MEAN ([1]; 6.25 μM): 1962 cpm
% VC ([1]; 20 μM): 45.3%
RT ACTIVITY (cpm) MEAN ([1]; 20 μM): 1216 cpm
% VC ([1]; 62.5 μM): 29.07%
RT ACTIVITY (cpm) MEAN ([1]; 62.5 μM): 779 cpm
% VC ([1]; 200 μM): 17.50%
RT ACTIVITY (cpm) MEAN ([1]; 200 μM): 469 cpm
cytotoxic effects on the HeLa CD4 LTR β-gal cells (HeLa CD4 LTR β-gal cells): no significant cytotoxic effects
Percent Control by Supernatant Reverse Transcriptase activity ([2]; Day 7, 1 μg/ml): 94 Percent Control
Percent Control by Supernatant Reverse Transcriptase activity ([2]; Day 7, 5 μg/ml): 87 Percent Control
Percent Control by Supernatant Reverse Transcriptase activity ([2]; Day 7, 10 μg/ml): 92 Percent Control
Percent Control by Supernatant Reverse Transcriptase activity ([2]; Day 7, 25 μg/ml): 84 Percent Control
Percent Control by Supernatant Reverse Transcriptase activity ([2]; Day 7, 50 μg/ml): 70 Percent Control
Percent Control by Supernatant Reverse Transcriptase activity ([2]; Day 7, 100 μg/ml): 34 Percent Control
Percent Control by Supernatant Reverse Transcriptase activity ([2]; Day 14, 1 μg/ml): 94 Percent Control
Percent Control by Supernatant Reverse Transcriptase activity ([2]; Day 14, 5 μg/ml): 57 Percent Control
Percent Control by Supernatant Reverse Transcriptase activity ([2]; Day 14, 10 μg/ml): 66 Percent Control
Percent Control by Supernatant Reverse Transcriptase activity ([2]; Day 14, 25 μg/ml): 65 Percent Control
Percent Control by Supernatant Reverse Transcriptase activity ([2]; Day 14, 50 μg/ml): 56 Percent Control
Percent Control by Supernatant Reverse Transcriptase activity ([2]; Day 14, 100 μg/ml): 75 Percent Control
Percent Control by Supernatant Reverse Transcriptase activity ([2]; da 21, 1 μg/ml): 90 Percent Control
Percent Control by Supernatant Reverse Transcriptase activity ([2]; da 21, 5 μg/ml): 77 Percent Control
Percent Control by Supernatant Reverse Transcriptase activity ([2]; da 21, 10 μg/ml): 74 Percent Control
Percent Control by Supernatant Reverse Transcriptase activity ([2]; da 21, 25 μg/ml): 63 Percent Control
Percent Control by Supernatant Reverse Transcriptase activity ([2]; da 21, 50 μg/ml): 46 Percent Control
Percent Control by Supernatant Reverse Transcriptase activity ([2]; da 21, 100 μg/ml): 50 Percent Control
IC50 in chronically infected PBMCs ([2]; day 7): 68 µg/mL

Zinc Iodiscorbate [Compound Z]
activity in the U1 assay [1]: inactive
% VC ([1]; 0.00063 ug/ml): 110.1%
% VC ([1]; 0.002 ug/ml): 105.4%
RT ACTIVITY (cpm) MEAN ([1]; 0.002 ug/ml): 3245 cpm
% VC ([1]; 0.00625 ug/ml): 99.9%
RT ACTIVITY (cpm) MEAN ([1]; 0.00625 ug/ml): 3077 cpm
% VC ([1]; 0.02 ug/ml): 94.2%
RT ACTIVITY (cpm) MEAN ([1]; 0.02 ug/ml): 2902 cpm
% VC ([1]; 0.0625 ug/ml): 93.9%
RT ACTIVITY (cpm) MEAN ([1]; 0.0625 ug/ml): 2891 cpm
% VC ([1]; 0.2 ug/ml): 101.2%
RT ACTIVITY (cpm) MEAN ([1]; 0.2 ug/ml): 3115 cpm
RT VALUES (cpm) MEAN ([1]; 0.625 ug/ml): 2504.7 cpm
X VC ([1]; 0.625 ug/ml): 106.3
% VC ([1]; 0.625 ug/ml): 64.4%
RT ACTIVITY (cpm) MEAN ([1]; 0.625 ug/ml): 1984 cpm
RT VALUES (cpm) MEAN ([1]; 2 ug/ml): 2492.7 cpm
X VC ([1]; 2 ug/ml): 105.8
% VC ([1]; 2 ug/ml): 59.7%
RT ACTIVITY (cpm) MEAN ([1]; 2 ug/ml): 1838 cpm
RT VALUES (cpm) MEAN ([1]; 6.25 ug/ml): 2813.0 cpm
X VC ([1]; 6.25 ug/ml): 119.4
% VC ([1]; 6.25 ug/ml): 66.9%
RT ACTIVITY (cpm) MEAN ([1]; 6.25 ug/ml): 2059 cpm
RT VALUES (cpm) MEAN ([1]; 20 ug/ml): 2385.7 cpm
X VC ([1]; 20 ug/ml): 101.2
% VC ([1]; 20 ug/ml): 63.2%
RT ACTIVITY (cpm) MEAN ([1]; 20 ug/ml): 1947 cpm
RT VALUES (cpm) MEAN ([1]; 62.5 ug/ml): 2253.7 cpm
X VC ([1]; 62.5 ug/ml): 95.6
% VC ([1]; 62.5 ug/ml): 39.78%
RT ACTIVITY (cpm) MEAN ([1]; 62.5 ug/ml): 1225 cpm
RT VALUES (cpm) MEAN ([1]; 200 ug/ml): 802.7 cpm
X VC ([1]; 200 ug/ml): 34.1
% VC ([1]; 200 ug/ml): 30.84%
RT ACTIVITY (cpm) MEAN ([1]; 200 ug/ml): 950 cpm
IC50 ([1]; U1, exp 2, Table 8): IC50 (uglml) = 43.99
IC50 ([1]; U1, experiment 1, Table 1): 164 µg/mL
IC50 ([1]; U1, experiment 2, Table 1): 44 µg/mL
IC50 ([1]; U1/TNFα, exp 1, Table 3): IC50 (ug/ml) = ..164.40
U1 EC50 ([1]; exp 2, Table 4): 44.0 µg/mL
TOXICITY VALUES (Cell Titer) MEAN (HeLa CD4 LTR β-gal cells; 3.2 μG/mL): 1.156 O. D.
TOXICITY VALUES (Cell Titer) MEAN (HeLa CD4 LTR β-gal cells; 10 μG/mL): 1.176 O. D.
% CC (HeLa CD4 LTR β-gal cells; 100 μG/mL): 22.6%
TOXICITY VALUES (Cell Titer) MEAN (HeLa CD4 LTR β-gal cells; 100 μG/mL): 0.259 O. D.
% CC (HeLa CD4 LTR β-gal cells; 320 μG/mL): 18.5%
TOXICITY VALUES (Cell Titer) MEAN (HeLa CD4 LTR β-gal cells; 320 μG/mL): 0.212 O. D.
% CC (HeLa CD4 LTR β-gal cells; 1000 μG/mL): 18.2%
TOXICITY VALUES (Cell Titer) MEAN (HeLa CD4 LTR β-gal cells; 1000 μG/mL): 0.208 O. D.
TC50 (HeLa CD4 LTR β-gal cells; HeLa CD4 LTR β-gal cells): 75 µg/mL
cytotoxic effects on the HeLa CD4 LTR β-gal cells (HeLa CD4 LTR β-gal cells): no significant cytotoxic effects
IC50 in chronically infected PBMCs ([2]; 21 days): approximately 30 μg/ml
Percent Control by Supernatant Reverse Transcriptase activity ([2]; Day 7, 1 μg/ml): 256 Percent Control
Percent Control by Supernatant Reverse Transcriptase activity ([2]; Day 7, 5 μg/ml): 303 Percent Control
Percent Control by Supernatant Reverse Transcriptase activity ([2]; Day 7, 10 μg/ml): 230 Percent Control
Percent Control by Supernatant Reverse Transcriptase activity ([2]; Day 7, 25 μg/ml): 217 Percent Control
Percent Control by Supernatant Reverse Transcriptase activity ([2]; Day 7, 50 μg/ml): 229 Percent Control
Percent Control by Supernatant Reverse Transcriptase activity ([2]; Day 7, 100 μg/ml): 167 Percent Control
Percent Control by Supernatant Reverse Transcriptase activity ([2]; Day 14, 1 μg/ml): 63 Percent Control
Percent Control by Supernatant Reverse Transcriptase activity ([2]; Day 14, 5 μg/ml): 87 Percent Control
Percent Control by Supernatant Reverse Transcriptase activity ([2]; Day 14, 10 μg/ml): 69 Percent Control
Percent Control by Supernatant Reverse Transcriptase activity ([2]; Day 14, 25 μg/ml): 74 Percent Control
Percent Control by Supernatant Reverse Transcriptase activity ([2]; Day 14, 50 μg/ml): 67 Percent Control
Percent Control by Supernatant Reverse Transcriptase activity ([2]; Day 14, 100 μg/ml): 49 Percent Control
Percent Control by Supernatant Reverse Transcriptase activity ([2]; da 21, 1 μg/ml): 80 Percent Control
Percent Control by Supernatant Reverse Transcriptase activity ([2]; da 21, 5 μg/ml): 70 Percent Control
Percent Control by Supernatant Reverse Transcriptase activity ([2]; da 21, 10 μg/ml): 56 Percent Control
Percent Control by Supernatant Reverse Transcriptase activity ([2]; da 21, 25 μg/ml): 60 Percent Control
Percent Control by Supernatant Reverse Transcriptase activity ([2]; da 21, 50 μg/ml): 48 Percent Control
Percent Control by Supernatant Reverse Transcriptase activity ([2]; da 21, 100 μg/ml): 22 Percent Control
